Assays:
skin cells HaCaT = assay: Proliferative toxicity of EGFR inhibitor on skin cells HaCaT and ameliorating effect of nitric oxide releasing agents (CCK-8); assay type: cell-based; details: 48 hrs
Experimental: The cultured skin cell HaCaT were digested, counted, and seeded in a 96-well plate with 5000-10000 cells per well. After the cells were attached, the supernatant was discarded. The wells were divided to the blank control group, the EGFR inhibitor group, the EGFR inhibitor+nitric oxide releasing agent group and the blank solvent control group. The EGFR inhibitor group: 100 μL of the EGFR inhibitor solution was added (the final concentration was shown in Table 2; Cetuximab was in an aqueous solution, besides which each of other EGFR inhibitors were in a solution containing DMSO); the EGFR inhibitor+nitric oxide releasing agent group: the EGFR inhibitor solution and the nitric oxide releasing agent solution were added (the final concentration of the EGFR inhibitor and nitric oxide releasing agent were shown in Table 2, and depending on the solubility of the nitric oxide releasing agent, the nitric oxide releasing agent solution was an ethanol solution or an aqueous solution); the blank control group: except the normal replacement of the medium, no additional solution was added; a plurality of blank solvent control groups: an equal volume of the same type of solvent as the corresponding EGFR inhibitor group or the EGFR inhibitor+nitric oxide releasing agent was added. […] After additional culture for 48 hrs, the survival rate of cells was measured by Cell Counting Kit-8 (CCK-8) assay kit (C0037, purchased from Shanghai Beyotime Biotechnology Inc.) to calculate the proliferative toxicity of the EGFR inhibitor to cells and the ameliorating effect of the nitric oxide releasing agent to the proliferative toxicity.

[1] = tested on: small intestine epithelial cells FHs 74 Int; assay: Proliferative toxicity of EGFR inhibitor to small intestine epithelial cell FHs 74 Int and ameliorating effect of nitric oxide releasing agent (CCK-8); assay type: cell-based; details: one merged result for Erlotinib 10 μM, Afatinib 5 μM, Osimertinib 20 μM, agent 200 μM, 48 hrs
Experimental: The cultured small intestine epithelial cells FHs 74 Int were digested, counted, and seeded to a 96-well plate with 5000-10000 cells per well. After the cells were attached, the supernatant was discarded. The wells were divided to the blank control group, the EGFR inhibitor group, the EGFR inhibitor+nitric oxide releasing agent group and blank solvent control group.
EGFR inhibitor group: 100 μL of the EGFR inhibitor solution was added (the final concentration was listed in Table 3, all the EGFR inhibitor solution are DMSO solution); the EGFR inhibitor+nitric oxide releasing agent group: the EGFR inhibitor solution and the nitric oxide releasing agent solution were added (the final concentrations of the EGFR inhibitor and the nitric oxide releasing agent were listed in Table 3, and depending on the solubility of the nitric oxide releasing agents, the nitric oxide releasing agent solution was ethanol solution or aqueous solution); the blank control group: except the normal replacement of medium, no additional solution was added; a plurality of blank solvent control group: an equal volume of the same type of solvent as the corresponding EGFR inhibitor group or the EGFR inhibitor+nitric oxide releasing agent group was added. […] After additional 48 hrs of culture, the survival rate of cells was determined by Cell Counting Kit-8 (CCK-8) assay kit (C0037, Shanghai Beyotime Biotechnology Inc., Beyotime Biotechnology), to calculate the proliferative toxicity of the EGFR inhibitor to cells and the ameliorating effect of the nitric oxide releasing agent to the proliferative toxicity. GraphPad Prism 6.0 Software and t-test were used to carry out a statistic analysis of the results and plot a graph.

[2] = tested on: Human Oral Keratinocytes (HOK); assay: Proliferative toxicity of EGFR inhibitor on Human Oral Keratinocytes (HOK) and ameliorating effect of nitric oxide releasing agent (CCK-8); assay type: cell-based; details: one merged result for Erlotinib 10 μM, Afatinib 5 μM, Osimertinib 20 μM, agent 200 μM, 48 hrs
Experimental: The cultured Human Oral Keratinocytes (HOK) were digested, counted, and seeded to a 96-well plate with 5000-10000 cells per well. After the cells were attached, the supernatant was discarded. The wells were divided to the blank control group, the EGFR inhibitor group, the EGFR inhibitor+nitric oxide releasing agent group and blank solvent control group. EGFR inhibitor group: 100 μL of the EGFR inhibitor solution was added (the final concentration was listed in Table 4, all the EGFR inhibitor solution that are DMSO solution); the EGFR inhibitor+nitric oxide releasing agent group: the EGFR inhibitor solution and the nitric oxide releasing agent solution were added (the final concentrations of the EGFR inhibitor and the nitric oxide releasing agent were listed in Table 4, and depending on the solubility of the nitric oxide releasing agents, the nitric oxide releasing agent solution was ethanol solution or aqueous solution); the blank control group: except the normal replacement of medium, no additional solution was added; a plurality of blank solvent control group: an equal volume of the same type of solvent as the corresponding EGFR inhibitor group or the EGFR inhibitor+nitric oxide releasing agent group was added. […] After additional 48 hrs of culture, the survival rate of cells was determined by Cell Counting Kit-8 (CCK-8) assay kit (C0037, Shanghai Beyotime Biotechnology Inc., Beyotime Biotechnology), to calculate the proliferative toxicity of the EGFR inhibitor to cells and the ameliorating effect of the nitric oxide releasing agent to the proliferative toxicity. GraphPad Prism 6.0 Software and t-test were used to carry out a statistic analysis of the results and plot a graph.

[3] = tested on: human foreskin fibroblasts (HFF); assay: Proliferative toxicity of EGFR inhibitor on HFF and ameliorating effect of nitric oxide releasing agent (CCK-8); assay type: cell-based; details: one merged result for Erlotinib 10 μM, Afatinib 5 μM, Osimertinib 20 μM, agent 200 μM, 48 hrs
Experimental: The cultured human foreskin fibroblasts (HFF) were digested, counted, and seeded to a 96-well plate with 5000-10000 cells per well. After the cells were attached, the supernatant was discarded. The wells were divided to the blank control group, the EGFR inhibitor group, the EGFR inhibitor+nitric oxide releasing agent group and blank solvent control group. EGFR inhibitor group: 100 μL of the EGFR inhibitor solution was added (the final concentration was listed in Table 6, the EGFR inhibitor solutionare DMSO solution); the EGFR inhibitor+nitric oxide releasing agent group: the EGFR inhibitor solution and the nitric oxide releasing agent solution were added (the final concentrations of the EGFR inhibitor and the nitric oxide releasing agent were listed in Table 6, and depending on the solubility of the nitric oxide releasing agents, the nitric oxide releasing agent solution was ethanol solution or aqueous solution); the blank control group: except the normal replacement of medium, no additional solution was added; a plurality of blank solvent control group: an equal volume of the same type of solvent as the corresponding EGFR inhibitor group or the EGFR inhibitor+nitric oxide releasing agent group was added. […] After additional 48 hrs of culture, the survival rate of cells was determined by Cell Counting Kit-8 (CCK-8) assay kit (C0037, Shanghai Beyotime Biotechnology Inc., Beyotime Biotechnology), to calculate the proliferative toxicity of the EGFR inhibitor to cells and the ameliorating effect of the nitric oxide releasing agent to the proliferative toxicity. GraphPad Prism 6.0 Software and t-test were used to carry out a statistic analysis of the results and plot a graph.

[4] = tested on: human umbilical vein endothelial cells (HUVEC); assay: Proliferative toxicity of EGFR inhibitor on HUVEC and ameliorating effect of nitric oxide releasing agent (CCK-8); assay type: cell-based; details: 48 hrs
Experimental: The cultured human umbilical vein endothelial cells (HUVECs) were digested, counted, and seeded to a 96-well plate with 5000-10000 cells per well. After the cells were attached, the supernatant was discarded. The wells were divided to the blank control group, the EGFR inhibitor group, the EGFR inhibitor+nitric oxide releasing agent group and blank solvent control group.
EGFR inhibitor group: 100 μL of the EGFR inhibitor solution was added (the final concentration was listed in Table 5, the EGFR inhibitor solution are DMSO solution); the EGFR inhibitor+nitric oxide releasing agent group: the EGFR inhibitor solution and the nitric oxide releasing agent solution were added (the final concentrations of the EGFR inhibitor and the nitric oxide releasing agent were listed in Table 5, and depending on the solubility of the nitric oxide releasing agents, the nitric oxide releasing agent solution was ethanol solution or aqueous solution); the blank control group: except the normal replacement of medium, no additional solution was added; a plurality of blank solvent control group: an equal volume of the same type of solvent solution as the corresponding EGFR inhibitor group or the EGFR inhibitor+nitric oxide releasing agent group was added. The blank solvent control group was used for data correction to eliminate the effect of solvent to the result in the EGFR inhibitor group and the EGFR inhibitor+nitric oxide releasing agent group. After additional 48 hrs of culture, the survival rate of cells was determined by Cell Counting Kit-8 (CCK-8) assay kit (C0037, Shanghai Beyotime Biotechnology Inc., Beyotime Biotechnology), to calculate the proliferative toxicity of the EGFR inhibitor to cells and the ameliorating effect of the nitric oxide releasing agent to the proliferative toxicity. GraphPad Prism 6.0 Software and t-test were used to carry out a statistic analysis of the results and plot a graph. […]

[5] = tested on: intracellular NO level in hMSC; assay: Effect of the EGFR inhibitor on the intracellular NO levels, hMSC; assay type: cell-based; details: hMSCs; 20 μM; 12-24 hrs; cell lysate
Experimental: (§1) The cultured HaCaT, HUVEC and hMSC were respectively digested, counted, and seeded into 6-well plates with 100,000-600,000 cells per well. After the cells were attached, the supernatant was discarded, and 1.5 mL of the EGFR inhibitor solution diluted to the final concentration as shown in Table 7 was added into the wells of the 6-well plates, wherein no additional solution was added to the blank control group, except the normal replacement of basic medium. After 12-24 hrs of addition of the EGFR inhibitor, the supernatant was discarded, while 100 μL of a cell lysis solution was added to the cells in the 6-well plates (specifically for the detection of nitric oxide, 53090, Beyotime Inc.). After 30 s of lysis, 50 μL cell lysis solution was taken. The NO level in the cell lysis solution was detected by using NO assay kit (S0021, Beyotime Inc.). GraphPad Prism 6.0 Software and t-test were used to carry out a statistic analysis of the results and plot a graph.

[6] = tested on: intracellular NO level in HaCaT; assay: Effect of the EGFR inhibitor on the intracellular NO levels, HaCaT; assay type: cell-based; details: 20 μM, 12-24 hrs, cell lysate
Experimental: as §1

[7] = tested on: intracellular NO level in HUVEC; assay: Effect of the EGFR inhibitor on the intracellular NO levels, HUVEC; assay type: cell-based, human; details: 20 μM, 12-24 hrs, cell lysate
Experimental: as §1

[8] = Afatinib 5 μM + nitric oxide releasing agent 200 μM
[9] = Cetuximab 100-200 μg/mL + nitric oxide releasing agent 200 μM
[10] = Erlotinib 10 μM + nitric oxide releasing agent 200 μM
[11] = Osimertinib 20 μM + nitric oxide releasing agent 200 μM

NCCN(CCN)[N+]([O-])=NO [NOC-18, 3,3-di (aminoethyl)-1-hydroxyl-2-carbonyl-1-triazene]
Cell Survival Rate: percentage of viable cells increased vs EGFR inhibitor group (skin cells HaCaT; [8]): by 35-45% | Cell Survival Rate: percentage of viable cells increased vs EGFR inhibitor group (skin cells HaCaT; [9]): by 45-55% | Cell Survival Rate: percentage of viable cells increased vs EGFR inhibitor group (skin cells HaCaT; [10]): by 75-85% | Cell Survival Rate: percentage of viable cells increased vs EGFR inhibitor group (skin cells HaCaT; [11]): by 25-35%

O=C(NCCO[N+](=O)[O-])c1cccnc1 [Nicorandil, nicorandil]
Cell Survival Rate: percentage of viable cells increased vs EGFR inhibitor group (skin cells HaCaT; [8]): by 65-75% | Cell Survival Rate: percentage of viable cells increased vs EGFR inhibitor group (skin cells HaCaT; [10]): by 85-95% | Cell Survival Rate: percentage of viable cells increased vs EGFR inhibitor group (skin cells HaCaT; [11]): by 30-40%

CCOC(=O)[N-]c1cn(N2CCOCC2)n[o+]1 [Molsidomine]
Cell Survival Rate: percentage of viable cells increased vs EGFR inhibitor group (skin cells HaCaT; [8]): by 35-45% | Cell Survival Rate: percentage of viable cells increased vs EGFR inhibitor group (skin cells HaCaT; [10]): by 75-85% | Cell Survival Rate: percentage of viable cells increased vs EGFR inhibitor group (skin cells HaCaT; [11]): by 35-45% | Cell Survival Rate: percentage of viable cells increased vs EGFR inhibitor group [1]: 15%-35% | Cell Survival Rate: percentage of viable cells increased vs EGFR inhibitor group [2]: 20-30% | Cell Survival Rate: percentage of viable cells increased vs EGFR inhibitor group [3]: 20-70%

O=[N+]([O-])OCC(CO[N+](=O)[O-])O[N+](=O)[O-] [Nitroglycerin, nitroglycerin]
Cell Survival Rate: percentage of viable cells increased vs EGFR inhibitor group ([4]; Afatinib 5 μM + agent 200 μM): 15-20% | Cell Survival Rate: percentage of viable cells increased vs EGFR inhibitor group ([4]; Erlotinib 10 μM + agent 200 μM): 20-30% | Cell Survival Rate: percentage of viable cells increased vs EGFR inhibitor group ([4]; Osimertinib 20 μM + agent 200 μM): 90-100% | Cell Survival Rate: percentage of viable cells increased vs EGFR inhibitor group (skin cells HaCaT; [8]): by 85-95% | Cell Survival Rate: percentage of viable cells increased vs EGFR inhibitor group (skin cells HaCaT; Canertinib 10 μM + nitric oxide releasing agent 200 μM): by 55-65% | Cell Survival Rate: percentage of viable cells increased vs EGFR inhibitor group (skin cells HaCaT; [9]): by 35-45% | Cell Survival Rate: percentage of viable cells increased vs EGFR inhibitor group (skin cells HaCaT; EAI045 20 μM + nitric oxide releasing agent 200 μM): by 65-75% | Cell Survival Rate: percentage of viable cells increased vs EGFR inhibitor group (skin cells HaCaT; [10]): by 65-75% | Cell Survival Rate: percentage of viable cells increased vs EGFR inhibitor group (skin cells HaCaT; Gefitinib 10 μM + nitric oxide releasing agent 200 μM): by 65-75% | Cell Survival Rate: percentage of viable cells increased vs EGFR inhibitor group (skin cells HaCaT; Icotinib 10 μM + nitric oxide releasing agent 200 μM): by 65-75% | Cell Survival Rate: percentage of viable cells increased vs EGFR inhibitor group (skin cells HaCaT; Lapatinib 10 μM + nitric oxide releasing agent 200 μM): by 55-65% | Cell Survival Rate: percentage of viable cells increased vs EGFR inhibitor group (skin cells HaCaT; Nazartinib 10 μM + nitric oxide releasing agent 200 μM): by 55-65% | Cell Survival Rate: percentage of viable cells increased vs EGFR inhibitor group (skin cells HaCaT; Neratinib 10 μM + nitric oxide releasing agent 200 μM): by 65-75% | Cell Survival Rate: percentage of viable cells increased vs EGFR inhibitor group (skin cells HaCaT; Olmutinib 10 μM + nitric oxide releasing agent 200 μM): by 35-45% | Cell Survival Rate: percentage of viable cells increased vs EGFR inhibitor group (skin cells HaCaT; [11]): by 35-45% | Cell Survival Rate: percentage of viable cells increased vs EGFR inhibitor group (skin cells HaCaT; Poziotinib 10 μM + nitric oxide releasing agent 200 μM): by 55-65% | Cell Survival Rate: percentage of viable cells increased vs EGFR inhibitor group (skin cells HaCaT; Rociletinib 10 μM + nitric oxide releasing agent 200 μM): by 65-75% | Cell Survival Rate: percentage of viable cells increased vs EGFR inhibitor group (skin cells HaCaT; Sapitinib 10 μM + nitric oxide releasing agent 200 μM): by 55-65% | Cell Survival Rate: percentage of viable cells increased vs EGFR inhibitor group (skin cells HaCaT; Vandetanib 10 μM + nitric oxide releasing agent 200 μM): by 55-65% | Cell Survival Rate: percentage of viable cells increased vs EGFR inhibitor group (skin cells HaCaT; Varlitinib 10 μM + nitric oxide releasing agent 200 μM): by 35-45% | Cell Survival Rate: percentage of viable cells increased vs EGFR inhibitor group [1]: 15%-35% | Cell Survival Rate: percentage of viable cells increased vs EGFR inhibitor group [2]: 20-30% | Cell Survival Rate: percentage of viable cells increased vs EGFR inhibitor group [3]: 30-90%

C#Cc1cccc(Nc2ncnc3cc(OCCOC)c(OCCOC)cc23)c1 [Erlotinib]
NO Level: percentage of NO concentration decreased vs control group [5]: 30% | NO Level: percentage of NO concentration decreased vs control group [6]: 28% | NO Level: percentage of NO concentration decreased vs control group [7]: 22%

CC(C)CCON=O [Isoamyl nitrite, isoamyl nitrite]
Cell Survival Rate: percentage of viable cells increased vs EGFR inhibitor group (skin cells HaCaT; [8]): by 35-45% | Cell Survival Rate: percentage of viable cells increased vs EGFR inhibitor group (skin cells HaCaT; [9]): by 35-45% | Cell Survival Rate: percentage of viable cells increased vs EGFR inhibitor group (skin cells HaCaT; [10]): by 75-85% | Cell Survival Rate: percentage of viable cells increased vs EGFR inhibitor group (skin cells HaCaT; [11]): by 35-45% | Cell Survival Rate: percentage of viable cells increased vs EGFR inhibitor group [1]: 25%-35% | Cell Survival Rate: percentage of viable cells increased vs EGFR inhibitor group [2]: 25-35% | Cell Survival Rate: percentage of viable cells increased vs EGFR inhibitor group [3]: 30-80%
